Where “and” joins values, the source holds several entries; their conditions need not be identical. Equal entries are not always repeated. Toxic doses and inconclusive results are not listed. How the source made its calls: active means survival T/C of 150% or more; inactive means T/C below 125% in these data.
Test system: BDF1 mice, P388 leukemia ip, median survival T/C
Experiment: NCI In Vivo Anticancer Drug Screen. Data for tumor model P388 Leukemia (intraperitoneal) in B6D2F1 (BDF1) mice
Details: endpoint: median survival time, higher = longer survival
Procedure, shortened: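 Compound-treated tumour-bearing mice were compared with vehicle-treated controls. Survival was recorded, and the value is the treated-group measurement divided by the control-group measurement (T/C).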

[1] = dose: 50.0 mg/kg/injection, schedule: Q01DX009 (ip), vehicle: saline with Tween-80
[2] = dose: 100.0 mg/kg/injection, schedule: Q01DX009 (ip), vehicle: saline with Tween-80
[3] = dose: 200.0 mg/kg/injection, schedule: Q01DX009 (ip), vehicle: saline with Tween-80
[4] = dose: 400.0 mg/kg/injection, schedule: Q01DX009 (ip), vehicle: saline with Tween-80
[5] = dose: 25.0 mg/kg/injection, schedule: Q04DX003 (ip), vehicle: saline with Tween-80
[6] = dose: 50.0 mg/kg/injection, schedule: Q04DX003 (ip), vehicle: saline with Tween-80
[7] = dose: 100.0 mg/kg/injection, schedule: Q04DX003 (ip), vehicle: water
[8] = dose: 200.0 mg/kg/injection, schedule: Q01DX009 (ip), vehicle: water
[9] = dose: 200.0 mg/kg/injection, schedule: Q04DX003 (ip), vehicle: water
[10] = dose: 400.0 mg/kg/injection, schedule: Q01DX009 (ip), vehicle: water
[11] = dose: 50.0 mg/kg/injection, schedule: Q01DX009 (ip), vehicle: Klucel (hydroxypropylcellulose) (HPC)
[12] = dose: 100.0 mg/kg/injection, schedule: Q01DX009 (ip), vehicle: Klucel (hydroxypropylcellulose) (HPC)

Measured: T/C

CCCCCCCC(=O)OCC(=O)[C@]1(O)Cc2c(O)c3c(c(O)c2[C@@H](OC2CC(N)C(O)C(C)O2)C1)C(=O)c1c(OC)cccc1C3=O (some centres undefined)
inactive: dose: 2.5 mg/kg/injection, schedule: Q04DX003 (ip), vehicle: water 116 % of control | dose: 4.0 mg/kg/injection, schedule: Q01DX009 (ip), vehicle: water 90 % of control | dose: 40.0 mg/kg/injection, schedule: Q04DX003 (ip), vehicle: water 100 % of control
active: dose: 0.5 mg/kg/injection, schedule: Q01DX009 (ip), vehicle: water 204 % of control | dose: 1.0 mg/kg/injection, schedule: Q01DX009 (ip), vehicle: water 254 % of control and 190 % of control | dose: 1.0 mg/kg/injection, schedule: Q04DX003 (ip), vehicle: water 207 % of control | dose: 2.0 mg/kg/injection, schedule: Q01DX009 (ip), vehicle: water 231 % of control and 311 % of control | dose: 2.0 mg/kg/injection, schedule: Q04DX003 (ip), vehicle: water 264 % of control | dose: 2.88 mg/kg/injection, schedule: Q04DX003 (ip), vehicle: water 215 % of control | dose: 4.0 mg/kg/injection, schedule: Q04DX003 (ip), vehicle: water 271 % of control | dose: 4.8 mg/kg/injection, schedule: Q04DX003 (ip), vehicle: water 339 % of control | dose: 10.0 mg/kg/injection, schedule: Q04DX003 (ip), vehicle: water 174 % of control

O=C(O)CCS(=O)(=O)CCC(=O)O
inactive: [1] 100 % of control | [2] 100 % of control | [3] 100 % of control

Fc1ccc(NC2=NCCN=C(Nc3ccc(F)cc3)SS2)cc1
inactive: [1] 96 % of control | [2] 87 % of control | [3] 102 % of control

O=C(O)CSc1ccc(NC(=O)NC2CCCCC2)cc1
inactive: [2] 105 % of control | [3] 115 % of control | [4] 105 % of control

COC(=O)c1cccc(OP(=O)(N(C)C)N(C)C)c1
inactive: [1] 106 % of control | [2] 114 % of control

CCOC(=O)c1cc2ccccc2oc1=O
inactive: dose: 25.0 mg/kg/injection, schedule: Q01DX009 (ip), vehicle: saline with Tween-80 95 % of control | [5] 115 % of control | [1] 100 % of control | [6] 105 % of control | dose: 100.0 mg/kg/injection, schedule: Q04DX003 (ip), vehicle: saline with Tween-80 105 % of control

Cc1n(CC(C)C)c2c([n+]1CC(=O)c1ccc([N+](=O)[O-])cc1)C(=O)c1ccccc1C2=O
inactive: dose: 1.25 mg/kg/injection, schedule: Q01DX010 (ip), vehicle: saline 118 % of control | dose: 2.5 mg/kg/injection, schedule: Q01DX010 (ip), vehicle: saline 122 % of control | dose: 5.0 mg/kg/injection, schedule: Q01DX010 (ip), vehicle: saline 104 % of control

COc1cc(OC)cc(C(=O)N2CC2)c1
inactive: dose: 6.25 mg/kg/injection, schedule: Q04DX003 (ip), vehicle: water 105 % of control | dose: 12.5 mg/kg/injection, schedule: Q04DX003 (ip), vehicle: water 98 % of control | dose: 25.0 mg/kg/injection, schedule: Q04DX003 (ip), vehicle: water 105 % of control | dose: 50.0 mg/kg/injection, schedule: Q04DX003 (ip), vehicle: water 96 % of control | [7] 107 % of control | [8] 100 % of control | [9] 100 % of control | dose: 300.0 mg/kg/injection, schedule: Q01DX009 (ip), vehicle: water 105 % of control | [10] 91 % of control

Nc1nc(N)c2cc(S(=O)(=O)c3ccc(Cl)c(Cl)c3)ccc2n1
inactive: [1] 100 % of control | [2] 91 % of control | [3] 102 % of control

CC[C@@H]1C[C@@H]2CN3CCc4c([nH]c5ccc(OC)cc45)C(C(=O)OC)(C2)C13
inactive: [11] 108 % of control | [12] 113 % of control | dose: 200.0 mg/kg/injection, schedule: Q01DX009 (ip), vehicle: Klucel (hydroxypropylcellulose) (HPC) 113 % of control

OC/C=[CH]\[Sn]([c]1ccccc1)([c]1ccccc1)[c]1ccccc1
inactive: [1] 89 % of control | [2] 115 % of control | [3] 106 % of control

Cc1[nH]nc(-c2ccon2)c1N
inactive: [1] 115 % of control | [2] 119 % of control | [3] 113 % of control

CC(C)C(O)(C(=O)OCC1=CC[N+]2([O-])CCC(O)C12)C(C)O (centres undefined)
inactive: dose: 200.0 mg/kg/injection, schedule: Q01DX006 (ip), vehicle: water 110 % of control | dose: 800.0 mg/kg/injection, schedule: Q01DX006 (ip), vehicle: water 100 % of control | dose: 1600.0 mg/kg/injection, schedule: Q01DX006 (ip), vehicle: water 94 % of control

CCCCCCCCCCCC(=O)c1ccc(Cl)cc1
inactive: [2] 91 % of control | [3] 92 % of control | [4] 109 % of control

OCC1OC(n2cnc3c(SCc4ccccc4)nc(NO)nc32)C(O)C1O (centres undefined)
inactive: dose: 200.0 mg/kg/injection, schedule: Q01DX009 (ip), vehicle: acetone 100 % of control

CCCCCCCCCC(=O)NC(CN1CCOCC1)C(=O)c1ccccc1 (centres undefined)
inactive: dose: 12.5 mg/kg/injection, schedule: Q04DX003 (ip), vehicle: saline with Tween-80 95 % of control | [5] 98 % of control | [6] 100 % of control

CCCCSc1cc(Cc2cc(C)ccc2O)c(O)c(Cc2cc(C)ccc2O)c1
inactive: dose: 50.0 mg/kg/injection, schedule: Q01DX009 (ip), vehicle: other 107 % of control | dose: 100.0 mg/kg/injection, schedule: Q01DX009 (ip), vehicle: other 107 % of control

Oc1c(Cl)cc(Cl)cc1C1N2CCCCC2C2c3cccn3-c3ccccc3N21 (centres undefined)
inactive: [11] 93 % of control | [12] 90 % of control

Cc1cccc(C)c1NC(=S)N1CCC(CCCC2CCN(C(=S)Nc3c(C)cccc3C)CC2)CC1
inactive: [1] 86 % of control | [2] 90 % of control | [3] 104 % of control

CCCCN(CCCC)C(=O)C1C=C2c3cccc4[nH]cc(c34)CC2N(C)C1 (centres undefined)
inactive: dose: 50.0 mg/kg/injection, schedule: Q01DX009 (ip), vehicle: water 105 % of control | dose: 100.0 mg/kg/injection, schedule: Q01DX009 (ip), vehicle: water 94 % of control | [7] 105 % of control | [8] 114 % of control | [9] 94 % of control | [10] 109 % of control | dose: 400.0 mg/kg/injection, schedule: Q04DX003 (ip), vehicle: water 97 % of control

COc1cc2c(cc1OC)C1CCc3cc(OC)c(OC)cc3C1N=C2 (centres undefined)
inactive: dose: 20.0 mg/kg/injection, schedule: Q01DX009 (ip), vehicle: saline 95 % of control | dose: 40.0 mg/kg/injection, schedule: Q01DX009 (ip), vehicle: saline 95 % of control | dose: 80.0 mg/kg/injection, schedule: Q01DX009 (ip), vehicle: saline 100 % of control | dose: 120.0 mg/kg/injection, schedule: Q01DX009 (ip), vehicle: saline 100 % of control | dose: 240.0 mg/kg/injection, schedule: Q01DX009 (ip), vehicle: saline 95 % of control

O=c1ccc2cc(-c3ccncc3)cnc2[nH]1
inactive: dose: 100.0 mg/kg/injection, schedule: Q04DX002 (ip), vehicle: saline with Tween-80 108 % of control

CN1c2ccccc2C(=O)N2CCc3c([nH]c4ccccc34)C21 (centres undefined)
inactive: dose: 10.0 mg/kg/injection, schedule: Q01DX009 (ip), vehicle: saline with Tween-80 98 % of control | dose: 20.0 mg/kg/injection, schedule: Q01DX009 (ip), vehicle: saline with Tween-80 118 % of control

— PubChem BioAssay AID328 (DTP/NCI, 2004)
